Here are results for seven molecules from patent US20250326753A1, “DUAL CXCR4-BTK INHIBITORS” (X4 Pharmaceuticals, Inc., priority 2022, published 2025).

Structures are written as SMILES. Read-outs that look alike come from different tables or passages of the source. Where only a bound is given, the exact number is not on record here.

Common to all, as to assay type: biochemical
One experiment concerns the target T1, ARAF YDYD (Homo sapiens, UniProt P10398, Y301D/Y302D).
T1 construct: purchased Reaction Biology Europe GmbH
T1 sequence (P10398 1-606 Y301D/Y302D): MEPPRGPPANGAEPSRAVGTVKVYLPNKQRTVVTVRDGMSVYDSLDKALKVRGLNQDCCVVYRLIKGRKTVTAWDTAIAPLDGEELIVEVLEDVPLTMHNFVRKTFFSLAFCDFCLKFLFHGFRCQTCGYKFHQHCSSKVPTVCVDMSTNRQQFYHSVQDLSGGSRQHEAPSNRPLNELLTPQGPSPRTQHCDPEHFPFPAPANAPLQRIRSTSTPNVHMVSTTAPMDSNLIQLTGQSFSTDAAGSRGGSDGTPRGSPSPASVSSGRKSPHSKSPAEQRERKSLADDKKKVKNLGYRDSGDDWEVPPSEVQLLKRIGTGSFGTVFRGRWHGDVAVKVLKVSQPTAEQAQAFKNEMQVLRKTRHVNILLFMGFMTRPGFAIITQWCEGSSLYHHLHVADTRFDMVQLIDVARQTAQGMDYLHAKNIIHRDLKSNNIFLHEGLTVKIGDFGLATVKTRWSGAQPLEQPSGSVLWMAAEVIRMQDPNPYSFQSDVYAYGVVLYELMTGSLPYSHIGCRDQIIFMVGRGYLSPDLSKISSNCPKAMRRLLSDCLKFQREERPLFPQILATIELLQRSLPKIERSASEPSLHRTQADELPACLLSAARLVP
Description: PanQinase kinase panel: ARAF YDYD. To be noted: read-out: INHIBITORY EFFECT @ 1 uM: ARAF YDYD. As for the experimental part:
(§1) Screening procedures were performed in accordance with the company's on-line protocol [accessed on-line Mar.
(§2) For each kinase, the median value of the cpm of three wells was defined as “low control” (n=3). This value reflects unspecific binding of radioactivity to the plate in the absence of a protein kinase but in the presence of the substrate. Additionally, for each kinase the median value of the cpm of three other wells was taken as the “high control,” i.e. full activity in the absence of any inhibitor (n=3). The difference between high and low control of each enzyme was taken as 100% activity.
(§3) As part of the data evaluation the low control of each kinase was subtracted from the high control value as well as from their corresponding “compound values”. The residual activity (in %) for each compound well was calculated by using the following formula: Res. Activity (%)=100×[(signal of compound−low control)/(high control−low control)].

The target of the next experiment is T2, EGFR (Homo sapiens, UniProt P00533).
T2 construct: purchased Reaction Biology Europe GmbH
T2 sequence (P00533 25-1210): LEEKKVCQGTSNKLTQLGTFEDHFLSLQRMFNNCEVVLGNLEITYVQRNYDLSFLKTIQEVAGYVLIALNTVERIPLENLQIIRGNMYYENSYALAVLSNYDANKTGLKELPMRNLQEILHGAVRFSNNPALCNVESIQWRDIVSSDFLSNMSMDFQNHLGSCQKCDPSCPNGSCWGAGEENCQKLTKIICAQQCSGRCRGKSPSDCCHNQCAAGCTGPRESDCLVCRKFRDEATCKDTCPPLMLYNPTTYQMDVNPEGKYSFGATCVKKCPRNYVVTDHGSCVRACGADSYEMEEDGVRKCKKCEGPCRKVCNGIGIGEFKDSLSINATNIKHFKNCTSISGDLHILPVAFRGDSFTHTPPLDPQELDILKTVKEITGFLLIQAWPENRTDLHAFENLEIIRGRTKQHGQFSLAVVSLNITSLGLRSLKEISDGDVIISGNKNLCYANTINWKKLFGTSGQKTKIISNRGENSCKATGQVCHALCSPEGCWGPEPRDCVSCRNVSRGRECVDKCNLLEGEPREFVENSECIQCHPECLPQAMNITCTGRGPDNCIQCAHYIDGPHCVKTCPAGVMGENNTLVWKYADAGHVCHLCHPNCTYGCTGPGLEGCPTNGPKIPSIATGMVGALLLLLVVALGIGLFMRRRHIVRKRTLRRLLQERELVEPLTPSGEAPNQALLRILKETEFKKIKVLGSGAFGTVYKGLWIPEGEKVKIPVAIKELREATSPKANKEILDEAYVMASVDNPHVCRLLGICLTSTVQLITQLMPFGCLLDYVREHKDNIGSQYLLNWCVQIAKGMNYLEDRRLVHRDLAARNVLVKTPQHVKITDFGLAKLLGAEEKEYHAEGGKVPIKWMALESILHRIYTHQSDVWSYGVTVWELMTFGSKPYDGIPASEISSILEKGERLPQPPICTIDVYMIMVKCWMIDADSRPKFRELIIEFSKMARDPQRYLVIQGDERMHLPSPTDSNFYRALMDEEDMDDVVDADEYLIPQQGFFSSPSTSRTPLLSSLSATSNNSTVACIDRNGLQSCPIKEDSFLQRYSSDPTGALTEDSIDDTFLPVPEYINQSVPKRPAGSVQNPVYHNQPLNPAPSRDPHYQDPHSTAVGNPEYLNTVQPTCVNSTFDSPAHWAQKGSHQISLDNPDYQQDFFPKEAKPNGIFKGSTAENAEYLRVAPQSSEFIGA
Kind of experiment: PanQinase kinase panel: EGFR. To be noted: read-out: INHIBITORY EFFECT @ 1 uM: EGFR. As to the method:
as §1, §2, §3

Another experiment deals with T3, FGR (Homo sapiens, UniProt P09769).
T3 construct: purchased Reaction Biology Europe GmbH
T3 sequence (P09769 whole entry): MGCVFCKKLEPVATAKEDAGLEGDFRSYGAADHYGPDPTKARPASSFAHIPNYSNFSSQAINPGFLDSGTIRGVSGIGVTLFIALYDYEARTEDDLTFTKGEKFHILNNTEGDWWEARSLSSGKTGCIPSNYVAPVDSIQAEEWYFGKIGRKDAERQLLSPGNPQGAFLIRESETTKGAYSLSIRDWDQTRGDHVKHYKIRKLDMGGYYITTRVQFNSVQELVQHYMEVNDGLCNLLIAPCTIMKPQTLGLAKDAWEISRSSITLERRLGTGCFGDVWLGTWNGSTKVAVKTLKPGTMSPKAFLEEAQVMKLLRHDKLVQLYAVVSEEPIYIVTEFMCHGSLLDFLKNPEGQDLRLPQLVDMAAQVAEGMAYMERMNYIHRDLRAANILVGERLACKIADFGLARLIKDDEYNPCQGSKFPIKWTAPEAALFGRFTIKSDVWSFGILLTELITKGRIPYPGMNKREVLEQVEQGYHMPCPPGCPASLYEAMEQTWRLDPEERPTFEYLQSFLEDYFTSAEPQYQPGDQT
Description: PanQinase kinase panel: FGR. To be noted: read-out: INHIBITORY EFFECT @ 1 uM: FGR. As for the experimental part: as §1, §2
As part of the data evaluation the low control of each kinase was subtracted from the high control value as well as from their corresponding “compound values”.

The target in another experiment is T4, LCK (Homo sapiens, UniProt P06239).
T4 construct: purchased Reaction Biology Europe GmbH
T4 sequence (P06239 whole entry): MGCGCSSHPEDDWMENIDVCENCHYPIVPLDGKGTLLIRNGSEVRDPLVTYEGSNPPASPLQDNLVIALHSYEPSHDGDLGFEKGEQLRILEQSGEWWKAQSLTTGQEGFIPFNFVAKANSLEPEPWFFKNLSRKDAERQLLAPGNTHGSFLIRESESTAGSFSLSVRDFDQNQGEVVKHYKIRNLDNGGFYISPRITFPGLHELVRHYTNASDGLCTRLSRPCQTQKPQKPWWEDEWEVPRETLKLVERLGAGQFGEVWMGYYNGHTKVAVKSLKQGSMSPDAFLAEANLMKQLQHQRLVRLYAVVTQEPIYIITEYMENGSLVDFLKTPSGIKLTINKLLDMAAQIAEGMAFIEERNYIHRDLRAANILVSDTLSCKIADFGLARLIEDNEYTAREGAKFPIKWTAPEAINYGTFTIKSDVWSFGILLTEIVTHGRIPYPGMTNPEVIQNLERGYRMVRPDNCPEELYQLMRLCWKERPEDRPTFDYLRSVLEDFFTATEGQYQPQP
Kind of experiment: PanQinase kinase panel: LCK. The note with it: read-out: INHIBITORY EFFECT @ 1 uM: LCK. As for the experimental part:
as §1, §2, §3

In the next experiment the target is T5, LYN (Homo sapiens, UniProt P07948).
T5 construct: purchased Reaction Biology Europe GmbH
T5 sequence (P07948 whole entry): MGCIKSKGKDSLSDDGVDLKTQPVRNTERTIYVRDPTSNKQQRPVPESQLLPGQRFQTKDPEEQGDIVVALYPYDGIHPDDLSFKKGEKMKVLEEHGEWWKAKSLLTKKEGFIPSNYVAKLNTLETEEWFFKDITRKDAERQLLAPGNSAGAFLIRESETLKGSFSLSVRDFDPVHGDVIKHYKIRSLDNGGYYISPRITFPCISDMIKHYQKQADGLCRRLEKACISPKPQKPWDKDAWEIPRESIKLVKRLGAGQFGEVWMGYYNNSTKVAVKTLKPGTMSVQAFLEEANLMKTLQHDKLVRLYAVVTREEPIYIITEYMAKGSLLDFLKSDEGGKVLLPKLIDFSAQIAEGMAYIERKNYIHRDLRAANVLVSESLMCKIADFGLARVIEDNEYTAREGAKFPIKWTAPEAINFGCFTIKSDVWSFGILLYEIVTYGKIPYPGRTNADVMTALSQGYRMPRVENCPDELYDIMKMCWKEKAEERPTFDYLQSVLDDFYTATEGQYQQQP
Kind of experiment: PanQinase kinase panel: LYN. To be noted: read-out: INHIBITORY EFFECT @ 1 uM: LYN. As for the experimental part:
as §1, §2, §3

A further experiment addresses T6, FER (Homo sapiens, UniProt P16591).
T6 construct: purchased Reaction Biology Europe GmbH
Kind of experiment: PanQinase kinase panel: FER. The note with it: read-out: INHIBITORY EFFECT @ 1 uM: FER. As for the experimental part: as §1, §2, §3

For another experiment, the target named is T7, INSRR (Homo sapiens, UniProt P14616).
T7 construct: purchased Reaction Biology Europe GmbH
Description: PanQinase kinase panel: INSRR. The note with it: read-out: INHIBITORY EFFECT @ 1 uM: INSRR. As to the method:
as §1, §2, §3

Another experiment concerns the target T8, MKK6 SDTD (Homo sapiens, UniProt P52564, S207D/T211D).
T8 construct: purchased Reaction Biology Europe GmbH
T8 sequence (P52564 1-334 S207D/T211D): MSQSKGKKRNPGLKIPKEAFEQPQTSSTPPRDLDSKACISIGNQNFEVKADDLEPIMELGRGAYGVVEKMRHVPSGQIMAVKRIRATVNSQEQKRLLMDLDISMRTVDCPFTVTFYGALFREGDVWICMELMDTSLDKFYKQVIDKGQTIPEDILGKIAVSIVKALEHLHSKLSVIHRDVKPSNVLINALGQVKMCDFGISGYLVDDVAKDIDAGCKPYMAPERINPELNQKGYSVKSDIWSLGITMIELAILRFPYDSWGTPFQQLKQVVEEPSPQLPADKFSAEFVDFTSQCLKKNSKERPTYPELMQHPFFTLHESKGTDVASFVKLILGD
Kind of experiment: PanQinase kinase panel: MKK6 SDTD. To be noted: read-out: INHIBITORY EFFECT @ 1 uM: MKK6 SDTD. As for the experimental part: as §1, §2, §3

A further experiment addresses T9, TRKC (Homo sapiens, UniProt Q16288).
T9 construct: purchased Reaction Biology Europe GmbH
Description: PanQinase kinase panel: TRKC. The note with it: read-out: INHIBITORY EFFECT @ 1 uM: TRKC. As for the experimental part: as §1, §2, §3

The target of another experiment is T10, LIMK2 (Homo sapiens, UniProt P53671).
T10 construct: purchased Reaction Biology Europe GmbH
T10 sequence (P53671 whole entry): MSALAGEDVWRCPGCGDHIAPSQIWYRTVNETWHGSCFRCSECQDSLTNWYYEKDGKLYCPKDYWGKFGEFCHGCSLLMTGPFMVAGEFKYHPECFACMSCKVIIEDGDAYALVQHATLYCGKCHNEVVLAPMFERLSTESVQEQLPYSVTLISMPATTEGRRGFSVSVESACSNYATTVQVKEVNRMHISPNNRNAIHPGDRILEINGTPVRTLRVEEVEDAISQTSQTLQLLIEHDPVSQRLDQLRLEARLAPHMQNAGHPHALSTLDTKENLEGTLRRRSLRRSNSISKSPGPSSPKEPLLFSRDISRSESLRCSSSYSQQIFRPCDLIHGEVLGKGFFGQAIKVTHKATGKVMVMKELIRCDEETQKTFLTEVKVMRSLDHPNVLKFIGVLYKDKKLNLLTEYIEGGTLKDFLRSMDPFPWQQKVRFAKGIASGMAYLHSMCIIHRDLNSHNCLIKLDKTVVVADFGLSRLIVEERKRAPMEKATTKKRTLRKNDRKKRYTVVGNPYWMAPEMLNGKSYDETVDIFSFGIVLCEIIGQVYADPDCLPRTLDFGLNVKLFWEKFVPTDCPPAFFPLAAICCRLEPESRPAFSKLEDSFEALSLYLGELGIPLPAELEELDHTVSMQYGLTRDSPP
Description: PanQinase kinase panel: LIMK2. As to the method: as §1, §2, §3

For the next experiment, the target named is BTK (Homo sapiens, UniProt Q06187). Description: BTK Kinase Enzyme System with ADP-Glo Kinase Assay. Details: Recombinant full-length human BTK was expressed by baculovirus in Sf9 insect cells; His (N); purchased Promega V9071; host or cells: Sf9 insect cells (baculovirus). The note with it: 50 μM ATP. As to the method: Inhibition of BTK activity was evaluated using the BTK Kinase Enzyme System in combination with the ADP-Glo™ Kinase Assay Kit (V9071, Promega), according to manufacturer's instructions. Luminescence was detected on a PerkinElmer EnVision Multimode Plate Reader.
Chain of BTK (Q06187 whole entry): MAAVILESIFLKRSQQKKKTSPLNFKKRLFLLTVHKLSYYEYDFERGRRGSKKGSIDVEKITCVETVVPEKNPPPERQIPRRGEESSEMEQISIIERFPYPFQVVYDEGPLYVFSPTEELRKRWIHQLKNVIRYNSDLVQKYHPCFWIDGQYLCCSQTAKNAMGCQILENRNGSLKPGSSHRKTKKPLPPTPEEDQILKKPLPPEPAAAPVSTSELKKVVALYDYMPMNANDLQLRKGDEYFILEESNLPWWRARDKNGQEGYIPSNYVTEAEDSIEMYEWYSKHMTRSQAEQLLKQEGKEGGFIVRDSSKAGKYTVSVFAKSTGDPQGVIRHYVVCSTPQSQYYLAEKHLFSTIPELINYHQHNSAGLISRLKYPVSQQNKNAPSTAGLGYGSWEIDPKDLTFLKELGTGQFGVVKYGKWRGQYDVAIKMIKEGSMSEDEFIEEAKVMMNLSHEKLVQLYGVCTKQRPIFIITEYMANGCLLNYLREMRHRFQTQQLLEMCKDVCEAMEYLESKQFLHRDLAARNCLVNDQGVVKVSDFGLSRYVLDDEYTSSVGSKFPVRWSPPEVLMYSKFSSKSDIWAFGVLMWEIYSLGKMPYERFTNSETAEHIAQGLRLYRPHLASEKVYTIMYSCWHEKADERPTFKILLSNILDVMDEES
Recombinant full-length human BTK was expressed by baculovirus in Sf9 insect cells using an N-terminal His tag, MW ˜78 kDa. Substrate solution contained Poly (4:1 Glu, Tyr) Peptide Substrate. BTK Kinase Buffer consisted of: 40 mM Tris, pH 7.5; 20 mM MgCl2; 0.1 mg/ml BSA; 2 mM MnCl2; 50 μM DTT. ADP-Glo™ Reagents were thawed at ambient temperature; components of BTK Enzyme System, ADP and ATP were thawed on ice. Final assay conditions used 3 ng BTK, 50 μM ATP, and 0.2 mg/mL substrate. Compounds were tested at 11 dose points in duplicates, in 3-fold dilution with top concentration at 10 μM.
Assay performance was evaluated according to the reference compound Staurosporine, which was within 3-5 fold of published results and between different tests, with a Z′ value larger than 0.5, where applicable.
In general terms: ADP-Glo turns the ADP formed in a reaction into a luminescent signal.

Where [1] appears, read: read-out: INHIBITORY EFFECT @ 1 uM: LIMK2.

T9 sequence (Q16288 32-839): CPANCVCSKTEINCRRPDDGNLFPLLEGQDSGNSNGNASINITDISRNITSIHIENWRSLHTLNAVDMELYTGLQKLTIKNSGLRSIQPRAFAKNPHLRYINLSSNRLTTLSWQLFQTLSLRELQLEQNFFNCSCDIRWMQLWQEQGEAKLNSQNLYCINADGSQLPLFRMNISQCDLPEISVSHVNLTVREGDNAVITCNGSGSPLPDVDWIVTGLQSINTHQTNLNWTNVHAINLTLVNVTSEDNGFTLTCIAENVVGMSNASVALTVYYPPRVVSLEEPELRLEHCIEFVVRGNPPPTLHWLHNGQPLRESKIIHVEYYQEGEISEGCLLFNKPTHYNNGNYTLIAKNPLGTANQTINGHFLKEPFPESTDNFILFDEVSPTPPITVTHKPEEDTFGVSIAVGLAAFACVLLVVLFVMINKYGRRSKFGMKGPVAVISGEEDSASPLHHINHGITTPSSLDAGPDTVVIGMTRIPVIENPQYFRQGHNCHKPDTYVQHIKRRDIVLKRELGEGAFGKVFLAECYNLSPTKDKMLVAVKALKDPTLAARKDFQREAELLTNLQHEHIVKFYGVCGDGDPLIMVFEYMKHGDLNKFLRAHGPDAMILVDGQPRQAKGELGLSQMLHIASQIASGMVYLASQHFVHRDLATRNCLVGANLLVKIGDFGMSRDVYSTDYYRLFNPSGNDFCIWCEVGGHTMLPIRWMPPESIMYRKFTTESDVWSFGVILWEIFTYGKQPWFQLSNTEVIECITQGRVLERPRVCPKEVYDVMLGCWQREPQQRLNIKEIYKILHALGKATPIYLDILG

Regarding `O=C(c1ccc(Oc2ccccc2)cc1Cl)c1c[nH]c2ncnc(N[C@@H]3CC[C@@H](CO)OC3)c12` [ARQ-531, (2-chloro-4-phenoxyphenyl) (4-(((3R,6S)-6-(hydroxymethyl)tetrahydro-2H-pyran-3-yl)amino)-7H-pyrrolo[2,3-d]pyrimidin-5-yl) methanone], the inhibition at 1 µM lay in the range of 70 to 89% at ARAF YDYD; 70 to 89% on EGFR; 70 to 89% on FGR; 90 to 100% on LCK; 70 to 89% at LYN; 70 to 89% at FER. The figures for the inhibition at 1 µM at INSRR, on MKK6 SDTD and on TRKC were 90 to 100%, 90 to 100% and less than 50%, respectively.

Turning to `Cc1cccnc1[C@H]1CCC[C@@H](c2ncccc2C)N1CCN1CCN(C(=O)c2ccc(-c3cc4c(-c5cccc(NC(=O)c6ccccc6)c5C)ncnc4[nH]3)cc2)CC1` [Compound I-10, N-(3-(6-(4-(4-(2-((2R,6S)-2,6-bis(3-methylpyridin-2-yl)piperidin-1-yl)ethyl)piperazine-1-carbonyl)phenyl)-7H-pyrrolo[2,3-d]pyrimidin-4-yl)-2-methylphenyl)benzamide], the inhibition at 1 µM is less than 50% on ARAF YDYD; less than 50% on EGFR; less than 50% on FGR; less than 50% on LCK; less than 50% on LYN; 50 to 89% on LIMK2 (at 1 μM, read-out: inhibition of LIMK2). The inhibition at 1 µM on LIMK2 (setting [1]) was 50 to 69%; on FER it was less than 50%; at INSRR, less than 50%; on MKK6 SDTD, less than 50%; at TRKC, less than 50%. In addition, the IC50 (commonly the concentration that inhibits the measured activity by half) at BTK fell in the range of 1 to 100 nM.

For the molecule `Cc1cc(-c2ccnc(Nc3cnn(CCN4[C@@H](c5ncccc5C)CCC[C@H]4c4ncccc4C)c3)n2)ccc1CNC(=O)N1CC(OC(C)C)C1` [Compound I-11], the IC50 at BTK lay in the range of 1 to 100 nM.

In the case of `Cc1cccnc1[C@H]1CCC[C@@H](c2ncccc2C)N1CCCCNC(=O)[C@@H]1CC[C@@H](Nc2ncnc3[nH]cc(C(=O)c4ccc(Oc5ccccc5)cc4Cl)c23)CO1` [Compound I-16], the IC50 at BTK fell in the range of 1 to 100 nM.

For `Cc1cccnc1[C@H]1CCC[C@@H](c2ncccc2C)N1CCCCNC(=O)OC[C@@H]1CC[C@@H](Nc2ncnc3[nH]cc(C(=O)c4ccc(Oc5ccccc5)cc4Cl)c23)CO1` [Compound I-18], the IC50 on BTK was 1 to 100 nM.

Turning to `COc1ccc(F)cc1C(=O)NCc1ccc(-c2nn([C@@H](C)C(F)(F)F)c(N)c2C(N)=O)cc1` [LOXO-305, pirtobrutinib], the inhibition at 1 µM on ARAF YDYD, at EGFR, at FGR, on LCK, at LYN and at LIMK2 (setting [1]) was less than 50% in each case. In addition, the inhibition at 1 µM at FER was less than 50%; at INSRR, less than 50%; at MKK6 SDTD it was less than 50%; at TRKC, 50 to 69%.

For `C=CC(=O)N1CCC([C@@H]2CCNc3c(C(N)=O)c(-c4ccc(Oc5ccccc5)cc4)nn32)CC1` [Zanubrutinib, (7S)-2-(4-phenoxyphenyl)-7-(1-prop-2-enoylpiperidin-4-yl)-4,5,6,7-tetrahydropyrazolo[1,5-a]pyrimidine-3-carboxamide], the inhibition at 1 µM on ARAF YDYD, at EGFR, at FGR, at LCK, on LIMK2 (setting [1]) and on FER was less than 50% in each case. The inhibition at 1 µM on INSRR, on MKK6 SDTD and at TRKC was less than 50% throughout.
